Tests used:
SNU-16 = assay: Cell SNU-16 assay; assay type: cell-based; conditions: Homo sapiens, SNU-16, SNU-16 cells
FGFR2 = FGFR2 (Homo sapiens (Human), UniProt P21802); assay: Biochemical FGFR2 Caliper assay
Sequence of FGFR2 (P21802 22-821): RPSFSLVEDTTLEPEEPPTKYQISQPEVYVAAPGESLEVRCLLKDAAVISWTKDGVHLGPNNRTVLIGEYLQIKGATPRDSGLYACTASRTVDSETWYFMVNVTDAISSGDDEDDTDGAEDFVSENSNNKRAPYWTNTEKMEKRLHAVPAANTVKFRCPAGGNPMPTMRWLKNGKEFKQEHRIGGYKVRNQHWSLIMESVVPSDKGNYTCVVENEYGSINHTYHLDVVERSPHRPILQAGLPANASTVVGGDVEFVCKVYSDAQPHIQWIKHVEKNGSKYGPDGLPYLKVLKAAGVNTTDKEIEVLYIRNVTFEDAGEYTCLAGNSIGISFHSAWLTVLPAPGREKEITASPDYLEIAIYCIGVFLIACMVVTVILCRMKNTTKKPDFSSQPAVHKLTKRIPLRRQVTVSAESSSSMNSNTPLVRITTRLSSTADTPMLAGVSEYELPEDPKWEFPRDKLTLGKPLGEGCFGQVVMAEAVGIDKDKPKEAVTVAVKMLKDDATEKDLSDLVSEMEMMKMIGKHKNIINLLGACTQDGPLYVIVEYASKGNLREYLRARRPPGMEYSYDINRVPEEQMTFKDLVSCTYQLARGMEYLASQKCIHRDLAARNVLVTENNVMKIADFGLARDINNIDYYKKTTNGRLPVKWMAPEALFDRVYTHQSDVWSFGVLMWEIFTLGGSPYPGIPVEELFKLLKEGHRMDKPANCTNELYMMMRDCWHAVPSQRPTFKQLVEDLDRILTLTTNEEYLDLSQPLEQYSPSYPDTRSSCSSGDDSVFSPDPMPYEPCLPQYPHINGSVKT

With `C=CC(=O)N1CC(CO)C(c2c(-c3ccc(Oc4cccc(C)n4)cc3)c3c(N)ncnc3n2C)C1` (stereo not shown) [Example 814] the IC50 (SNU-16) was ≤ 100 nM and the IC50 (FGFR2) was < 100 nM.
`C=C(C)C(=O)Nc1ccc(-c2[nH]c3ncnc(N)c3c2-c2ccc(Oc3ncc(F)cn3)c(F)c2)cc1` [Example 815] gave an IC50 (SNU-16) of 1000 to 100000 nM and an IC50 (FGFR2) of 250 to 1000 nM.
Compound `C=CC(=O)N(C)C1CCC(c2c(-c3ccc(Oc4cccc(C)n4)cc3)c3c(N)ncnc3n2C)C1` (stereo not shown) [Example 816] has an IC50 (SNU-16) of 100 to 250 nM and an IC50 (FGFR2) of 250 to 1000 nM.
In the case of `C=CC(=O)N1CCC(c2c(-c3cnn(-c4ccccc4C)c3)c3c(N)ncnc3n2C)C1` (stereo not shown) [Example 817], the IC50 (SNU-16) is reported as 100 to 250 nM and the IC50 (FGFR2) is reported as 100 to 250 nM.
For `C=C(C)C(=O)Nc1ccc(-c2[nH]c3ncnc(N)c3c2-c2ccc(S(=O)(=O)C3CCCC3)cc2)cc1` [Example 818], the IC50 (SNU-16) was 250 to 1000 nM and the IC50 (FGFR2) was 250 to 1000 nM.
`C=CC(=O)N1CC(c2c(-c3ccc(Oc4cccc(C)n4)cc3)c3c(N)ncnc3n2C)C[C@@H]1CO` (stereo partly shown) [Example 819] showed an IC50 (SNU-16) of 250 to 1000 nM and an IC50 (FGFR2) of 250 to 1000 nM.
With `C=C(C)C(=O)Nc1ccc(-c2c(-c3ccc(Oc4cccc(C)n4)cc3)c3ncncc3n2C)cc1` [Example 820] the IC50 (SNU-16) was ≤ 100 nM and the IC50 (FGFR2) was < 100 nM.
`C=C(C)C(=O)Nc1ccc(-c2cn3ncnc(N)c3c2-c2ccc(C(=O)N3CCCCC3)cc2)cc1` [Example 821] showed an IC50 (SNU-16) of 1000 to 100000 nM and an IC50 (FGFR2) of 1000 to 100000 nM.
`C=CC(=O)Nc1ccc(-c2[nH]c3ncnc(N)c3c2-c2ccc(Oc3ccn(C)n3)cc2)cc1` [Example 822] was tested, and the IC50 (SNU-16) was 250 to 1000 nM and the IC50 (FGFR2) was 250 to 1000 nM.
`C=C(C)C(=O)Nc1ccc(-c2cn3ncnc(N)c3c2-c2ccc(C(=O)NCC(F)(F)F)cc2)cc1` [Example 823] gave an IC50 (SNU-16) of 250 to 1000 nM and an IC50 (FGFR2) of 100 to 250 nM.
Work on `C=C(C)C(=O)Nc1ccc(-c2c(-c3ccc(Oc4cccc(C)n4)cc3)c3c(N)ncnn3c2C#N)cc1` [Example 824] yielded an IC50 (SNU-16) of 250 to 1000 nM and an IC50 (FGFR2) of 100 to 250 nM.
`C=C(C)C(=O)Nc1ccc(-c2cn3ncnc(N)c3c2-c2ccc(C(=O)N3CCCC3)cc2)cc1` [Example 825] was tested, and the IC50 (SNU-16) was ≤ 100 nM and the IC50 (FGFR2) was 100 to 250 nM.
With `C=C(C)C(=O)Nc1ccc(-c2cn3ncnc(N)c3c2-c2ccc(S(=O)(=O)N3CCCC3)cc2)cc1` [Example 826] the IC50 (SNU-16) was 250 to 1000 nM and the IC50 (FGFR2) was 250 to 1000 nM.
For `C=C(C)C(=O)Nc1ccc(-c2cn3ncnc(N)c3c2-c2ccc(Oc3ncc(F)cn3)c(F)c2)cc1` [Example 827], the IC50 (SNU-16) was 1000 to 100000 nM and the IC50 (FGFR2) was 1000 to 100000 nM.
Work on `C=CC(=O)N1CCC(c2cn3ncnc(N)c3c2-c2ccc(Oc3cccc(C)n3)cc2)C1` (stereo not shown) [Example 828] yielded an IC50 (SNU-16) of 250 to 1000 nM and an IC50 (FGFR2) of 1000 to 100000 nM.
In the case of `C=CC(=O)Nc1ccc(-c2cn3ncnc(N)c3c2-c2ccc(Oc3cccc(C)n3)cc2)cc1` [Example 829], the IC50 (SNU-16) is reported as ≤ 100 nM and the IC50 (FGFR2) is reported as < 100 nM.
In the case of `C=C(C)C(=O)Nc1ccc(-c2cn3ncnc(N)c3c2-c2ccc(C(=O)NC3CCC3)cc2)cc1` [Example 830], the IC50 (SNU-16) is reported as ≤ 100 nM and the IC50 (FGFR2) is reported as < 100 nM.
In the case of `C=C(C)C(=O)Nc1ccc(-c2[nH]c3cncnc3c2-c2ccc(Oc3cccc(C)n3)cc2)cc1` [Example 831], the IC50 (SNU-16) is reported as 100 to 250 nM and the IC50 (FGFR2) is reported as < 100 nM.
`C=C(C)C(=O)Nc1ccc(-c2c(-c3ccc(C(=O)NCC(F)(F)F)cc3)c3c(N)ncnn3c2CO)cc1` [Example 832] showed an IC50 (SNU-16) of 1000 to 100000 nM and an IC50 (FGFR2) of 1000 to 100000 nM.
For `C=CC(=O)N1CCC(O)(c2c(-c3ccc(Oc4cccc(C)n4)cc3)c3c(N)ncnc3n2C)C1` (stereo not shown) [Example 833], the IC50 (SNU-16) was 250 to 1000 nM and the IC50 (FGFR2) was 100 to 250 nM.
`C=C(C)C(=O)Nc1ccc(-c2cn3ncnc(N)c3c2-c2ccc(S(=O)(=O)NC3CCC3)cc2)cc1` [Example 834] was tested, and the IC50 (SNU-16) was 250 to 1000 nM and the IC50 (FGFR2) was 250 to 1000 nM.
`C=CC(=O)Nc1ccc(-c2c(-c3ccc(Oc4cccc(C)n4)cc3)c3c(N)ncnn3c2CO)cc1` [Example 835] was tested, and the IC50 (SNU-16) was 1000 to 100000 nM and the IC50 (FGFR2) was 1000 to 100000 nM.
`C=C(C)C(=O)Nc1ccc(-c2c(-c3ccc(Oc4cccc(C)n4)cc3)c3c(N)ncnn3c2C)cc1` [Example 836] was tested, and the IC50 (SNU-16) was ≤ 100 nM and the IC50 (FGFR2) was < 100 nM.
With `C=CC(=O)Nc1ccc(-c2cn3ncnc(N)c3c2-c2ccc(C(=O)N3CCCCC3)cc2)cc1` [Example 837] the IC50 (SNU-16) was ≤ 100 nM and the IC50 (FGFR2) was < 100 nM.
With `C=CC(=O)Nc1ccc(-c2cn3ncnc(N)c3c2-c2ccc(C(=O)NCC(F)(F)F)cc2)cc1` [Example 838] the IC50 (SNU-16) was ≤ 100 nM and the IC50 (FGFR2) was < 100 nM.
With `C=CC(=O)N1CC(c2c(-c3ccc(Oc4cccc(C)n4)cc3)c3c(N)ncnc3n2C)C[C@@H]1C` (stereo partly shown) [Example 839] the IC50 (SNU-16) was ≤ 100 nM and the IC50 (FGFR2) was < 100 nM.
In the case of `C=C(C)C(=O)Nc1ccc(-c2cn3ncnc(N)c3c2-c2ccc(C(=O)N3CC4CC3C4)cc2)cc1` [Example 840], the IC50 (SNU-16) is reported as ≤ 100 nM and the IC50 (FGFR2) is reported as < 100 nM.
`C=C(C)C(=O)Nc1ccc(-c2cn3ncnc(N)c3c2-c2ccc(C(=O)NC3CCOC3)cc2)cc1` (stereo not shown) [Example 841] was tested, and the IC50 (SNU-16) was 250 to 1000 nM and the IC50 (FGFR2) was 250 to 1000 nM.
In the case of `C=C(C)C(=O)Nc1ccc(-c2cn3ncnc(N)c3c2-c2ccc(C(=O)NCC(C)(C)O)cc2)cc1` [Example 842], the IC50 (SNU-16) is reported as 1000 to 100000 nM and the IC50 (FGFR2) is reported as 250 to 1000 nM.
For `C=C(C)C(=O)Nc1ccc(-c2cn3ncnc(N)c3c2C2=CCC(C(=O)N(C)C)CC2)cc1` (stereo not shown) [Example 843], the IC50 (SNU-16) was 250 to 1000 nM and the IC50 (FGFR2) was 250 to 1000 nM.
`C=CC(=O)N1CCC(c2c(-c3ccc(Oc4cccc(C)n4)cc3)c3c(N)ncnc3n2C)C1(C)C` (stereo not shown) [Example 844] gave an IC50 (SNU-16) of 1000 to 100000 nM and an IC50 (FGFR2) of 1000 to 100000 nM.
In the case of `C=CC(=O)N1CCC(n2cc(-c3c(-c4ccc(C(=O)NC5CCOC5)cc4)c4c(N)ncnc4n3C)cn2)CC1` (stereo not shown) [Example 845], the IC50 (SNU-16) is reported as 250 to 1000 nM and the IC50 (FGFR2) is reported as 250 to 1000 nM.
In the case of `C=C(C)C(=O)Nc1ccc(-c2c(-c3ccc(C(=O)N4CCCCC4)cc3)c3c(N)ncnn3c2CO)cc1` [Example 846], the IC50 (SNU-16) is reported as 1000 to 100000 nM and the IC50 (FGFR2) is reported as < 100 nM.
`C=CC(=O)N1CC(c2c(-c3ccc(Oc4cccc(C)n4)cc3)c3c(N)ncnc3n2C)C[C@H]1C` (stereo partly shown) [Example 847] was tested, and the IC50 (SNU-16) was 250 to 1000 nM and the IC50 (FGFR2) was 250 to 1000 nM.
Work on `C=CC(=O)N1CCC(n2cc(-c3c(-c4ccc(C(=O)N5CC6CC5C6)cc4)c4c(N)ncnc4n3C)cn2)CC1` [Example 848] yielded an IC50 (SNU-16) of 100 to 250 nM and an IC50 (FGFR2) of 100 to 250 nM.
For `C=CC(=O)N1CCC(n2cc(-c3c(-c4ccc(C(=O)N(C)Cc5nc(C)no5)cc4)c4c(N)ncnc4n3C)cn2)CC1` [Example 849], the IC50 (SNU-16) was 250 to 1000 nM and the IC50 (FGFR2) was 100 to 250 nM.
For `C=CC(=O)N1CCC(N)(c2c(-c3ccc(Oc4cccc(C)n4)cc3)c3c(N)ncnc3n2C)C1` (stereo not shown) [Example 850], the IC50 (SNU-16) was 1000 to 100000 nM and the IC50 (FGFR2) was 1000 to 100000 nM.
`C=CC(=O)N1CCC(n2cc(-c3c(-c4ccc(C(=O)NCC(C)(C)OC)cc4)c4c(N)ncnc4n3C)cn2)CC1` [Example 851] was tested, and the IC50 (SNU-16) was 1000 to 100000 nM and the IC50 (FGFR2) was 1000 to 100000 nM.
`C=C(C)C(=O)Nc1ccc(-c2cn3ncnc(N)c3c2-c2ccc(C(=O)NCC(C)(C)OC)cc2)cc1` [Example 852] showed an IC50 (SNU-16) of 1000 to 100000 nM and an IC50 (FGFR2) of 250 to 1000 nM.
In the case of `C=C(C)C(=O)Nc1ccc(-c2c(-c3ccc(C(=O)c4cccc(C)n4)cc3)c3c(N)ncnn3c2COC)cc1` [Example 853], the IC50 (SNU-16) is reported as 100 to 250 nM and the IC50 (FGFR2) is reported as 250 to 1000 nM.
`C=CC(=O)N1CCC(n2cc(-c3c(-c4ccc(C(=O)NCC(C)(C)O)cc4)c4c(N)ncnc4n3C)cn2)CC1` [Example 854] was tested, and the IC50 (SNU-16) was ≤ 100 nM and the IC50 (FGFR2) was 100 to 250 nM.
`C=CC(=O)N1CCC(n2cc(-c3c(-c4ccc(Oc5ccn(C)n5)cc4)c4c(N)ncnc4n3C)cn2)CC1` [Example 855] gave an IC50 (SNU-16) of 1000 to 100000 nM and an IC50 (FGFR2) of 250 to 1000 nM.
In the case of `C=C(C)C(=O)Nc1ccc(-c2c(-c3ccc(Oc4cccc(C)n4)cc3)c3c(N)ncnn3c2CN(C)C)cc1` [Example 856], the IC50 (SNU-16) is reported as 250 to 1000 nM and the IC50 (FGFR2) is reported as 250 to 1000 nM.
`C=C(C)C(=O)Nc1ccc(-c2[nH]c3ncnc(N)c3c2-c2ccc(Oc3cccc(C)n3)cc2)nc1` [Example 857] gave an IC50 (SNU-16) of 1000 to 100000 nM and an IC50 (FGFR2) of 1000 to 100000 nM.
